Experiments:
[1] = IV Cassette PK Assay in rats; type: in vivo; conditions: rat, male Wistar-Han rats, plasma, LC-MS/MS, read-out: Cassette PK T1/2 (converted)
Protocol: The results were obtained using the following the procedure:
Adult male Wistar-Han rats were fasted overnight and administered a cassette IV dose of mixture of several compounds via a previously implanted catheter in the femoral vein. Animals were allowed access to food 4 h post dose. Blood samples were collected into EDTA-containing tubes at the following time points: 0.03, 0.13, 0.25, 0.5, 1, 2, 4, 8 h post-dose. Blood samples were stored on ice until plasma was harvested by centrifugation. Plasma was transferred to a 96-well plate and stored at −20° C. until analysis. Concentrations of each compound in rat plasma were determined by LC-MS/MS following protein precipitation.

[2] = target: T1, sGC α1/β1 heterodimer stably expressed in CHO-K1 cell line (CHO-K1/sGC) (Homo sapiens, UniProt Q02108+Q02153); experiment: Cell-based sGC Functional Assay (CASA Assay), cGMP generation; conditions: CHO-K1/sGC cells, 1 hr at 37° C., cGMP by HTRF, presence or absence of 1 μM DETA-NO not given; for EC50: 4P fit, read-out: IP (nM) (inflection point); for Emax: read-out: % Act. (percent activation relative to maximum cGMP production of Compound A = 100%)
T1 construct: expressed in transfected cells
T1 sequence (Q02108 1-690): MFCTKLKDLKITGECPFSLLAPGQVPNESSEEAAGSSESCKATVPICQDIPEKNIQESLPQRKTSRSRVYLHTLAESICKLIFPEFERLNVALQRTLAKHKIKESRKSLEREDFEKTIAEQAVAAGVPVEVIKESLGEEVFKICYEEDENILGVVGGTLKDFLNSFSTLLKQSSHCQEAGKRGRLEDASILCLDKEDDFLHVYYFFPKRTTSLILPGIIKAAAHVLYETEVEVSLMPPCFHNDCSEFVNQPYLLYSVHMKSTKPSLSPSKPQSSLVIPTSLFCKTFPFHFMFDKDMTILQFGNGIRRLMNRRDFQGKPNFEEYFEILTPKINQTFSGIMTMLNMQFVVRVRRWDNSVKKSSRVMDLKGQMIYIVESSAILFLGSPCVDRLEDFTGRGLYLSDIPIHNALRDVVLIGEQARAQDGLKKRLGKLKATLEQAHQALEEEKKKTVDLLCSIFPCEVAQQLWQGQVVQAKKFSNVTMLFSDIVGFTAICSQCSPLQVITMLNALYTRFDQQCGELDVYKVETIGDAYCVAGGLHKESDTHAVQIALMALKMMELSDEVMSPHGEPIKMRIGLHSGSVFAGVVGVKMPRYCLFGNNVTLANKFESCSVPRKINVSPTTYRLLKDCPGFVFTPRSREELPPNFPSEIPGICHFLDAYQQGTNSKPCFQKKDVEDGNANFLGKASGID
T1 sequence (Q02153 1-619): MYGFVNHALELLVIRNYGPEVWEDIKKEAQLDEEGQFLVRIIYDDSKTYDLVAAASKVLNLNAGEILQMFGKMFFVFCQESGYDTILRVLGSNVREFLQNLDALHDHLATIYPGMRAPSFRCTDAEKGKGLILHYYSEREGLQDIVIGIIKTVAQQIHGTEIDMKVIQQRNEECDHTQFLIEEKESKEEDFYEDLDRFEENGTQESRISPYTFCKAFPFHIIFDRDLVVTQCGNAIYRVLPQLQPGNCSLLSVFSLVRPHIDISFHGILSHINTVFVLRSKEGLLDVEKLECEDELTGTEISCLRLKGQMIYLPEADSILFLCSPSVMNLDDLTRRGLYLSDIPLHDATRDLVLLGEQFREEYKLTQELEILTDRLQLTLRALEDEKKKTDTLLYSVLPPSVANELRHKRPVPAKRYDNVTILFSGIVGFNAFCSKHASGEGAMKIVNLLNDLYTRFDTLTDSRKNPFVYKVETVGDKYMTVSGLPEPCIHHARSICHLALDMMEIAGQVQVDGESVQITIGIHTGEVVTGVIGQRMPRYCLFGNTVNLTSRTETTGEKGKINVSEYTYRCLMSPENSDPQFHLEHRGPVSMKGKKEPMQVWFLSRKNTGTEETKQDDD
In short: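 Readout is HTRF cGMP in lysates, normalised to the maximal response of reference sGC activator Compound A (100%), with a 4P fit giving IP and fold induction. Cells were CHO-K1/sGC (human α1/β1) in EBSS buffer with IBMX, incubated 1 hr at 37° C with compound. Run with and without 1 μM DETA-NO; final DMSO 2.5%.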

Row | SMILES | half-life [1] [h] | EC50 [2] [nM] | Emax [2] [%]
1 | C[C@@]1(c2ccc(F)cc2)C(=O)Nc2nc(-c3cn4ncnc4c(CCC(F)(F)C(F)(F)F)n3)nc(N)c21 [Example 1A, (S)-4-Amino-5-(4-fluorophenyl)-5-methyl-2-(8-(3,3,4,4,4-pentafluorobutyl)-[1,2,4]triazolo[1,5-a]pyrazin-6-yl)-5H-pyrrolo[2,3-d]pyrimidin-6(7H)-one] | 3.35 | 187 | 
2 | CCCc1nc(-c2nc(O)c3c(n2)NC(=O)C3(C)c2ccc(Cl)cc2)cn2ncnc12 (centres unmarked) [Example 164A, 5-(4-chlorophenyl)-4-hydroxy-5-methyl-2-(8-propyl-[1,2,4]triazolo[1,5-a]pyrazin-6-yl)-5H-pyrrolo[2,3-d]pyrimidin-6(7H)-one] |  | 780 | 
3 | CCCc1nc(-c2nc(O)c3c(n2)NC(=O)[C@@]3(C)c2ccc(F)cc2)cn2ncnc12 [Example 165A, (S)-5-(4-fluorophenyl)-4-hydroxy-5-methyl-2-(8-propyl-[1,2,4]triazolo[1,5-a]pyrazin-6-yl)-5,7-dihydro-6H-pyrrolo[2,3-d]pyrimidin-6-one] |  | 1520 | 
4 | CCCc1nc(-c2nc(O)c3c(n2)NC(=O)C3(C)c2ccc(Cl)c(F)c2)cn2ncnc12 (centres unmarked) [Example 166B, 5-(4-chloro-3-fluorophenyl)-4-hydroxy-5-methyl-2-(8-propyl-[1,2,4]triazolo[1,5-a]pyrazin-6-yl)-5H-pyrrolo[2,3-d]pyrimidin-6(7H)-one] |  | 711 | 
5 | CCCc1nc(-c2nc(O)c3c(n2)NC(=O)C3(c2ccc(F)c(F)c2)C2CC2)cn2ncnc12 (centres unmarked) [Example 167A, 5-cyclopropyl-5-(3,4-difluorophenyl)-4-hydroxy-2-(8-propyl-[1,2,4]triazolo[1,5-a]pyrazin-6-yl)-5H-pyrrolo[2,3-d]pyrimidin-6(7H)-one] |  | 1090 | 70
6 | CCCc1nc(-c2nc(O)c3c(n2)NC(=O)C3(C)c2ccc(Cl)cc2)cn2nc(C)nc12 (centres unmarked) [Example 168A, 5-(4-chlorophenyl)-4-hydroxy-5-methyl-2-(2-methyl-8-propyl-[1,2,4]triazolo[1,5-a]pyrazin-6-yl)-5H-pyrrolo[2,3-d]pyrimidin-6(7H)-one] |  | 1450 | 
7 | C[C@@]1(c2ccc(F)cc2)C(=O)Nc2nc(-c3cn4ncnc4c(CCC(F)(F)C(F)(F)F)n3)ncc21 [Example 172A, (S)-5-(4-fluorophenyl)-5-methyl-2-(8-(3,3,4,4,4-pentafluorobutyl)-[1,2,4]triazolo[1,5-a]pyrazin-6-yl)-5,7-dihydro-6H-pyrrolo[2,3-d]pyrimidin-6-one] |  | 212 | 
8 | CC(C)Cc1nc(-c2ncc3c(n2)NC(=O)[C@@]3(C)c2ccc(F)cc2)cn2ncnc12 [Example 173A, (S)-5-(4-fluorophenyl)-2-(8-isobutyl-[1,2,4]triazolo[1,5-a]pyrazin-6-yl)-5-methyl-5,7-dihydro-6H-pyrrolo[2,3-d]pyrimidin-6-one] |  | 574 | 
9 | C[C@@]1(c2ccc(F)cc2)C(=O)Nc2nc(-c3cn4ncnc4c(CCC(F)(F)F)n3)ncc21 [Example 174A, (S)-5-(4-fluorophenyl)-5-methyl-2-(8-(3,3,3-trifluoropropyl)-[1,2,4]triazolo[1,5-a]pyrazin-6-yl)-5,7-dihydro-6H-pyrrolo[2,3-d]pyrimidin-6-one] |  | 1350 | 
10 | CC1(c2ccc(Cl)cn2)C(=O)Nc2nc(-c3cn4ncnc4c(CCC(F)(F)C(F)(F)F)n3)ncc21 (centres unmarked) [Example 175A, 5-(5-chloropyridin-2-yl)-5-methyl-2-(8-(3,3,4,4,4-pentafluorobutyl)-[1,2,4]triazolo[1,5-a]pyrazin-6-yl)-5H-pyrrolo[2,3-d]pyrimidin-6(7H)-one] |  | 384 | 
11 | CC1(c2ccc(F)cn2)C(=O)Nc2nc(-c3cn4ncnc4c(CCCC(F)(F)F)n3)ncc21 (centres unmarked) [Example 176B] |  | 526 | 
12 | NC(=O)c1nc(-c2cn3ncnc3c(CCCC(F)(F)F)n2)nc2c1C(c1ccc(C(F)(F)F)cn1)(C1CC1)C(=O)N2 (centres unmarked) [Example 178A] |  | 199 | 
13 | CC1(c2ccc(C(F)F)cn2)C(=O)Nc2nc(-c3cn4ncnc4c(CCCC(F)(F)F)n3)nc(O)c21 (centres unmarked) [Example 181A, 4-hydroxy-5-(5-(difluoromethyl)pyridin-2-yl)-5-methyl-2-(8-(4,4,4-trifluorobutyl)-[1,2,4]triazolo[1,5-a]pyrazin-6-yl)-5H-pyrrolo[2,3-d]pyrimidin-6(7H)-one] |  | 749 | 
14 | CC1(c2ccc(F)cc2)C(=O)Nc2nc(-c3cn4ccnc4c(CCC(F)(F)C(F)(F)F)n3)nc(N)c21 (centres unmarked) [reference compound] | 1.04 |  | 

Next, values leading:

Row | half-life [1] [h] | EC50 [2] [nM] | Emax [2] [%] | SMILES
15 | 3.94 | 111 |  | Nc1nc(-c2cn3ncnc3c(CCCC(F)(F)F)n2)nc2c1C(c1ccc(C(F)F)cn1)(C1CC1)C(=O)N2 (racemic) [Example 44B, 4-amino-5-cyclopropyl-5-(5-(difluoromethyl)pyridin-2-yl)-2-(8-(4,4,4-trifluorobutyl)-[1,2,4]triazolo[1,5-a]pyrazin-6-yl)-5H-pyrrolo[2,3-d]pyrimidin-6(7H)-one]
16 | 2.97 | 117 |  | CC1(c2ccc(F)cn2)C(=O)Nc2nc(-c3cn4ncnc4c(CCC(F)(F)C(F)(F)F)n3)nc(N)c21 (centres unmarked) [Example 4B, 4-amino-5-(5-fluoropyridin-2-yl)-5-methyl-2-(8-(3,3,4,4,4-pentafluorobutyl)-[1,2,4]triazolo[1,5-a]pyrazin-6-yl)-5H-pyrrolo[2,3-d]pyrimidin-6(7H)-one]
17 |  | 111 |  | CC1(c2ccc(F)c(F)c2)C(=O)Nc2nc(-c3cn4ncnc4c(CCC(F)(F)C(F)(F)F)n3)nc(O)c21 (centres unmarked) [Example 169B, 5-(3,4-Difluorophenyl)-4-hydroxy-5-methyl-2-(8-(3,3,4,4,4-pentafluorobutyl)-[1,2,4]triazolo[1,5-a]pyrazin-6-yl)-5,7-dihydro-6H-pyrrolo[2,3-d]pyrimidin-6-one]
18 |  | 9.5 |  | CC1(c2ccccc2F)C(=O)Nc2nc(-c3cn4ncnc4c(CCC(F)(F)C(F)(F)F)n3)nc(O)c21 (centres unmarked) [Example 170A, 5-(2-Fluorophenyl)-4-hydroxy-5-methyl-2-(8-(3,3,4,4,4-pentafluorobutyl)-[1,2,4]triazolo [1,5-a]pyrazin-6-yl)-5,7-dihydro-6H-pyrrolo [2,3-d]pyrimidin-6-one]
19 |  | 137 | 90 | CCCCc1nc(-c2nc(O)c3c(n2)NC(=O)C3(C)c2cccc(F)c2)cn2ncnc12 (centres unmarked) [Example 171A, 2-(8-Butyl-[1,2,4]triazolo[1,5-a]pyrazin-6-yl)-5-(3-fluorophenyl)-4-hydroxy-5-methyl-5,7-dihydro-6H-pyrrolo[2,3-d]pyrimidin-6-one]
20 |  | 128 |  | C[C@@]1(c2ccc(F)cc2)C(=O)Nc2nc(-c3cn4ncnc4c(CCC(F)(F)C(F)(F)F)n3)nc(C(N)=O)c21 [Example 177A, 5-(4-Fluorophenyl)-5-methyl-6-oxo-2-(8-(3,3,4,4,4-pentafluorobutyl)-[1,2,4]triazolo[1,5-a]pyrazin-6-yl)-6,7-dihydro-5H-pyrrolo[2,3-d]pyrimidine-4-carboxamide]
21 |  | 90.2 |  | CC1(c2ccc(C(F)(F)F)cn2)C(=O)Nc2nc(-c3cn4ncnc4c(CCCC(F)(F)F)n3)nc(C(N)=O)c21 (centres unmarked) [Example 179B, 5-methyl-6-oxo-2-(8-(4,4,4-trifluorobutyl)-[1,2,4]triazolo[1,5-a]pyrazin-6-yl)-5-(5-(trifluoromethyl)pyridin-2-yl)-6,7-dihydro-5H-pyrrolo[2,3-d] pyrimidine-4-carboxamide]
